Results reported in article PMC9078235 (RSC Advances, 2018).

Target: Thrombin (≥1000 NIH U mg^−1 protein) prepared from human plasma (Homo sapiens, UniProt P00734)
Assay: chromogenic thrombin activation assay, […] nm
Type: biochemical

Structure (SMILES) | EC50 [µM]
CC(=O)Oc1ccc(/C=C/C(=O)Nc2nc3ccccc3s2)cc1 [Q2, (E)-4-(3-(Benzo[d]thiazol-2-ylamino)-3-oxoprop-1-en-1-yl)phenyl acetate] | 136
COc1cc(/C=C/C(=O)Nc2nc3ccccc3s2)cc(OC)c1OC [Q8, (E)-N-(Benzo[d]thiazol-2-yl)-3-(3,4,5-trimethoxyphenyl)acrylamide] | 232
O=S(=O)(O)c1cc(O)ccc1O [etamsylate, reference compound] | 127
